# Test results: patent US20260028354A1, “TETRAHYDRONAPHTHALENE DERIVATIVES AS ESTROGEN RECEPTOR DEGRADERS” (REGENT OF THE UNIVERSITY OF MICHIGAN, priority 2022, published 2026)
# Like-named read-outs stand apart in the source and are kept apart here.
# How the values were obtained:
# ER in T47D cells = ER in T47D cells (Homo sapiens (Human), UniProt P03372); assay: In-cell Western (ICW) ER degradation assay in T47D cells; assay type: cell-based; conditions: 16 hrs treatment; for DC50: ER degradation
# Source text: In-cell Western (ICW) assays in MCF-7 and T47D cell lines.
# Day 3: After 16 hrs of compounds treatment, cells were fixed by 4% PFA and permeabilized with elution buffer (0.1% Triton X-100 in 1% PBS Solution). Subsequently, cells were blocked with Intercept (PBS) Blocking Buffer (Li-COR, Odyssey Blocking Buffer), and were stained with ER (1:500, Cell signaling) primary antibody for overnight at cold room.
# Day 4: Remove the buffer, add IRDye 800CW Goat anti-Rabbit IgG Secondary Antibody (1:2000) and CellTag 700 Stain (1:500) in Intercept (PBS) Blocking Buffer. Finally, cell plate is placed in incubator to dry. Image and signal were captured on Odyssey® DLx Imaging System.
# CRBN/DDB1 = CRBN/DDB1 (Homo sapiens (Human), UniProt Q96SW2); assay type: binding; conditions: His tagged CRBN+DDB1, Cy5-labeled Thalidomide probe, one hour; read-out: CRBN HTRF IC50
# Description: The binding potency was determined using HTRF assay technology (Perkin Elmer). Compounds were serially diluted in DMSO and […] volume was transferred to white 384-well plate.
# ER in MCF-7 cells = ER in MCF-7 cells (Homo sapiens (Human), UniProt P03372); assay: In-cell Western (ICW) ER degradation assay in MCF-7 cells; assay type: cell-based; conditions: for DC50: MCF-7, ER degradation, read-out: MCF7 DC50
# [1] = MCF7, MCF-7, maximal ER degradation, 16 hrs treatment, read-out: MCF7 Dmax
# [2] = MCF7, read-out: MCF7 Dmax, MCF-7, maximal ER degradation, 16 hrs treatment
# CRBN/DDB1, sequence (Q96SW2 whole entry, species assumed): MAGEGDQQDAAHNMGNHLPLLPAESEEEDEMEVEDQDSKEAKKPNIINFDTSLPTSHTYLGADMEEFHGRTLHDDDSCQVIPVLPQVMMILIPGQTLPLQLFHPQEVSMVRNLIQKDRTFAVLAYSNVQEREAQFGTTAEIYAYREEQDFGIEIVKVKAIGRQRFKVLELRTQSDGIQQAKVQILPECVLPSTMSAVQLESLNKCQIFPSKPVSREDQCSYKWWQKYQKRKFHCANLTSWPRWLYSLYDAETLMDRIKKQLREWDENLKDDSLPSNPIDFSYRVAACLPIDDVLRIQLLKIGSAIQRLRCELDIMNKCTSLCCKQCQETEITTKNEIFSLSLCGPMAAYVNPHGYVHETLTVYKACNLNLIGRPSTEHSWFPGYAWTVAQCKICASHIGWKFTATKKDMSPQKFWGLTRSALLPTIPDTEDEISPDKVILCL
# CRBN/DDB1, sequence (Q16531 whole entry partner, species assumed): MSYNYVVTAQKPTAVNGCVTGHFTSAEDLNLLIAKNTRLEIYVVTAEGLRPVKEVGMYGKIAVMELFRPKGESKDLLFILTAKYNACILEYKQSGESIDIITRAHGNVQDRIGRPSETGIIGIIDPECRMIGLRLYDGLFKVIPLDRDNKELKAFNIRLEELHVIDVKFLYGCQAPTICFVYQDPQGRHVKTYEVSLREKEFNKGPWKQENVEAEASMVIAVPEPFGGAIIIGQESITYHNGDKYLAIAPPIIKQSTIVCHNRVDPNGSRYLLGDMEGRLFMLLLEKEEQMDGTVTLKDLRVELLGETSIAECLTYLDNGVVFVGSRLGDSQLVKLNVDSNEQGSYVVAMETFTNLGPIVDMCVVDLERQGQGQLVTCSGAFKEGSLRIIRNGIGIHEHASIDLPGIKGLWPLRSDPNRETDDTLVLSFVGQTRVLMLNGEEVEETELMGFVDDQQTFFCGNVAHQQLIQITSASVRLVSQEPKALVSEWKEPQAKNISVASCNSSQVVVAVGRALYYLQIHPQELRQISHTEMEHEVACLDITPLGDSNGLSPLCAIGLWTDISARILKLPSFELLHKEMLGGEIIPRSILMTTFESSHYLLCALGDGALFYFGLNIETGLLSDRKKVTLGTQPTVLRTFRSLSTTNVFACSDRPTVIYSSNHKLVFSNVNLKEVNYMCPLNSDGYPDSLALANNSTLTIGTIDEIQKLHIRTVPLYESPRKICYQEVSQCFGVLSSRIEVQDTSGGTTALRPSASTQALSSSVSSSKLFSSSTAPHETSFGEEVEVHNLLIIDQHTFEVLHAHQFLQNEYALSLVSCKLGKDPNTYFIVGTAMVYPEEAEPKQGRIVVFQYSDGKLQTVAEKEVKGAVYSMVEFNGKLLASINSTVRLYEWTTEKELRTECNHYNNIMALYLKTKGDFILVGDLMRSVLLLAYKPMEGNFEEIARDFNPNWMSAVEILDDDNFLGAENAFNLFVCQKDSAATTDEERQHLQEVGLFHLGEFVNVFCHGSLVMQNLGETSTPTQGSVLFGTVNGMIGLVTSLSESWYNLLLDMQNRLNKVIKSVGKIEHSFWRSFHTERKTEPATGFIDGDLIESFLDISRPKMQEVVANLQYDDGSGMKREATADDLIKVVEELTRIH
# ER in MCF-7 cells, sequence (P03372 whole entry): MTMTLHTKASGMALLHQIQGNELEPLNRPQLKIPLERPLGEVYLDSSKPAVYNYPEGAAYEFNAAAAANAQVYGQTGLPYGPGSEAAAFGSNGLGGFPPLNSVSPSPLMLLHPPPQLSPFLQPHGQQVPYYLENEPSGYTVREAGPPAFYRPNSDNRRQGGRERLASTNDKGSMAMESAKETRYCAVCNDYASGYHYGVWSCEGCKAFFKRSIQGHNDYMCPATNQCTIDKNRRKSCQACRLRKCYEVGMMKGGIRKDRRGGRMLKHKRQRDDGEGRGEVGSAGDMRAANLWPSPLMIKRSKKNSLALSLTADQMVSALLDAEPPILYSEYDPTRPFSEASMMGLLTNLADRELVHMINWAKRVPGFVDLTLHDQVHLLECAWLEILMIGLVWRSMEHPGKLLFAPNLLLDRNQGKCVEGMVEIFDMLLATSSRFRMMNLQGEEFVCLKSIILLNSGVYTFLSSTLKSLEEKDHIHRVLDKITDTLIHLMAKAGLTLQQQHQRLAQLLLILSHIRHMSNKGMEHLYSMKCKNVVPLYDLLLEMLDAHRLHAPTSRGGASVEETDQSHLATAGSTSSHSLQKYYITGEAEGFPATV
# ER in T47D cells, sequence (P03372 whole entry): as above
Compound,DC50 (ER in T47D cells),T47D Dmax (ER in T47D cells; maximal ER degradation),IC50 (CRBN/DDB1),Dmax (ER in MCF-7 cells; [1]),DC50 (ER in MCF-7 cells; 16 hrs treatment),Dmax (ER in MCF-7 cells; [2]),"Dmax (ER in T47D cells; maximal ER degradation, read-out: T47D Dmax)","MCF7 Dmax (ER in MCF-7 cells; MCF-7, maximal ER degradation, 16 hrs treatment)"
"COc1cc(C2c3ccc(O)cc3CCC2c2ccccc2)c(F)cc1N1CCC(CN2CCN3c4ccc5c(c4OC[C@H]3C2)CN([C@H]2CCC(=O)NC2=O)C5=O)CC1 (stereo in doubt) [Compound A97, (S)-3-((R)-7-((1-(5-fluoro-4-((1R,2R)-6-hydroxy-2-phenyl-1,2,3,4-tetrahydronaphthalen-1-yl)-2-methoxyphenyl)piperidin-4-yl)methyl)-1-oxo-1,3,5,5a,6,7,8,9-octahydro-2H-pyrazino[1′,2′: 4,5][1,4]oxazino[2,3-e]isoindol-2-yl)piperidine-2,6-dione]",1 to 10 nM,A (“A”: >=75%),50 to 500 nM,,,,,
"O=C1CC[C@H](N2Cc3c(ccc4c3OC[C@H]3CN(C5CN(CCOc6ccc([C@@H]7c8ccc(O)cc8CC[C@@H]7c7ccccc7)cc6)C5)CCN43)C2=O)C(=O)N1 [Compound A79, (S)-3-((R)-7-(1-(2-(4-((1R,2S)-6-hydroxy-2-phenyl-1,2,3,4-tetrahydronaphthalen-1-yl)-phenoxy)ethyl)azetidin-3-yl)-1-oxo-1,3,5,5a,6,7,8,9-octa-hydro-2H-pyrazino[1′,2′:4,5] [1,4]oxazino[2,3-e]isoindol-2-yl)piperidine-2,6-dione]",,,< 50 nM,50 to 75%,< 1 nM,,,
"O=C1CC[C@H](N2Cc3cc4c(cc3C2=O)OC[C@@H]2CN(CC3CCC5(CC3)CN(c3ncc([C@@H]6c7ccc(O)cc7CC[C@@H]6c6ccccc6)cn3)C5)CCN42)C(=O)N1 (single isomer, unassigned) [Compound A158]",,,500 to 5000 nM,50 to 75%,< 1 nM,,,
"O=C1CC[C@H](N2Cc3cc4c(cc3C2=O)OCC42CCN(CC3CC4(CCN(c5ccc([C@H]6c7ccc(O)cc7CC[C@H]6c6ccccc6)cn5)CC4)C3)CC2)C(=O)N1 [Compound A125, (S)-3-(1′-((7-(5-((1R,2R)-6-hydroxy-2-phenyl-1,2,3,4-tetra-hydronaphthalen-1-yl)pyridin-2-yl)-7-azaspiro[3.5]nonan-2-yl)methyl)-7-oxo-5,7-dihydro-2H,6H-spiro[furo[2,3-f]iso-indole-3,4′-piperidin]-6-yl)-piperidine-2,6-dionc]",10 to 100 nM,B (“B”: >50 and <75%),50 to 500 nM,,,,,
"COc1cc(N2CCC(CN3CCC(c4ccc(N[C@H]5CCC(=O)NC5=O)c(F)c4)CC3)CC2)c(F)cc1[C@@H]1c2ccc(O)cc2CC[C@@H]1c1ccccc1 [Compound A118, (S)-3-((2-fluoro-4-(1-((1-(2-fluoro-4-((1S,2S)-6-hydroxy-2-phenyl-1,2,3,4-tetrahydronaph-thalen-1-yl)-5-methoxyphenyl)-piperidin-4-yl)methyl)piper-idin-4-yl)phenyl)amino)piper-idine-2,6-dione]",,,500 to 5000 nM,25 to 50%,< 1 nM,,,
"COc1cc(N2CC3(CCC(CN4CCN5c6cc7c(cc6OC[C@@H]5C4)C(=O)N([C@H]4CCC(=O)NC4=O)C7)CC3)C2)c(F)cc1[C@@H]1c2ccc(O)cc2CC[C@@H]1c1ccccc1 (single isomer, unassigned) [Compound A164]",,,500 to 5000 nM,> 75%,1 to 10 nM,,,
"O=C1CC[C@H](N2Cc3c(ccc4c3OC[C@H]3CN(CCCOC5CN(c6ccc([C@@H]7c8ccc(O)cc8CC[C@@H]7c7ccccc7)cc6)C5)CCN43)C2=O)C(=O)N1 [Compound A78, (S)-3-((R)-7-(3-((1-(4-((1R,2S)-6-hydroxy-2-phenyl-1,2,3,4-tetrahydronaphthalen-1-yl)-phenyl)azetidin-3-yl)oxy)prop-yl)-1-oxo-1,3,5,5a,6,7,8,9-octa-hydro-2H-pyrazino[1′,2′:4,5] [1,4]oxazino[2,3-e]isoindol-2-yl)piperidine-2,6-dione]",,,< 50 nM,50 to 75%,< 1 nM,,,
"O=C1CC[C@H](N2Cc3c(ccc4c3OCC43CCN(CC4CC5(CCN(c6ncc([C@@H]7c8ccc(O)cc8CC[C@@H]7c7ccccc7)cn6)CC5)C4)CC3)C2=O)C(=O)N1 [Compound A142, (S)-3-(1′-((7-(5-((1S,2S)-6-hydroxy-2-phenyl-1,2,3,4-tetrahydronaphthalen-1-yl)pyrimidin-2-yl)-7-azaspiro[3.5]nonan-2-yl)methyl)-6-oxo-6,8-dihydro-2H,7H-spiro[furo[2,3-e]isoindole-3,4′-piperidin]-7-yl)piperidine-2,6-dione]",,,< 50 nM,,< 1 nM,50 to 75%,,
"O=C1CC[C@H](N2Cc3cc4c(cc3C2=O)OC[C@@H]2CN(CC3CC5(CCN(c6ccc([C@@H]7c8ccc(O)cc8CC[C@@H]7c7ccccc7)cn6)CC5)C3)CCN42)C(=O)N1 (single isomer, unassigned) [Compound A121]",,,500 to 5000 nM,> 75%,1 to 10 nM,,,
"COc1nc(C(=O)NC2CCC(=O)NC2=O)ccc1N1CCN(CC2CCN(c3ccc([C@@H]4c5ccc(O)cc5CC[C@@H]4c4ccccc4)cc3)CC2)CC1 (single isomer, unassigned) [Compound A1]",1 to 10 nM,,500 to 5000 nM,,,,25 to 50%,
"O=C1CC[C@H](N2Cc3c(ccc4c3OC[C@H]3CN(CC5CC6COCC(C5)N6c5ccc([C@@H]6c7ccc(O)cc7CC[C@@H]6c6ccccc6)cc5)CCN43)C2=O)C(=O)N1 (stereo partly drawn) [Compound A83, (3S)-3-((5aR)-7-((9-(4-((1R, 2S)-6-hydroxy-2-phenyl-1,2,3,4-tetrahydronaphthalen-1-yl)phenyl)-3-oxa-9-azabi-cyclo[3.3.1]nonan-7-yl)meth-yl)-1-oxo-1,3,5,5a,6,7,8,9-octa-hydro-2H-pyrazino[1′,2′:4,5] [1,4]oxazino[2,3-e]isoindol-2-yl)piperidine-2,6-dione]",< 1 nM,B (“B”: >50 and <75%),50 to 500 nM,,,,,
"O=C1CC[C@H](N2Cc3cc4c(cc3C2=O)OC[C@@H]2CN(CC3CCC5(CC3)CN(c3ccc([C@H]6c7ccc(O)cc7CC[C@H]6c6ccccc6)cc3F)C5)CCN42)C(=O)N1 (single isomer, unassigned) [Compound A151]",,,500 to 5000 nM,25 to 50%,10 to 100 nM,,,
"(S)-3-((3-fluoro-4-(1-((1-(2-fluoro-4-((1S,2S)-6-hydroxy-2-phenyl-1,2,3,4-tetrahydronaphthalen-1-yl)-5-methoxyphenyl)piperidin-4-yl)methyl)piperidin-4-yl)phenyl)amino)piperidine-2,6-dione [Compound A120]",,,500 to 5000 nM,,10 to 100 nM,,,C (“C”: 25-50%)
"COc1cc(N2CC3(CCC(CN4CCN5c6ccc7c(c6OC[C@H]5C4)CN([C@H]4CCC(=O)NC4=O)C7=O)CC3)C2)c(F)cc1[C@@H]1c2ccc(O)cc2CC[C@@H]1c1ccccc1 (single isomer, unassigned) [Compound A163]",,,50 to 500 nM,> 75%,1 to 10 nM,,,
"O=C1CC[C@H](N2Cc3c(ccc4c3OCC43CCN(CC4CC5(CCN(c6ncc([C@H]7c8ccc(O)cc8CC[C@H]7c7ccccc7)cn6)CC5)C4)CC3)C2=O)C(=O)N1 [Compound A141, (S)-3-(1′-((7-(5-((1R,2R)-6-hydroxy-2-phenyl-1,2,3,4-tetrahydronaphthalen-1-yl)pyrimidin-2-yl)-7-azaspiro[3.5]nonan-2-yl)methyl)-6-oxo-6,8-dihydro-2H,7H-spiro[furo[2,3-e]isoindole-3,4′-piperidin]-7-yl)piperidine-2,6-dione]",,,< 50 nM,,1 to 10 nM,50 to 75%,,
